# Read-outs that look alike come from different tables or passages of the source.
# Columns and labels:
# Assay type in all cases: in vivo
# [1] = system: tail-suspended mice (disuse muscle atrophy of lower limbs); experiment: Evaluation of inhibition of muscular atrophy in tail-suspended mice, Part 2; settings: feed containing 0.01 mass % for 2 weeks during tail-suspension; vs control tail-suspension group
# Protocol: (§1) Eight-week-old C57/BL6J male mice (Japan SLC, Inc., Shizuoka, Japan) were subjected to the tail-suspension to obtain mice model with disuse muscle atrophy of their lower limbs.
# While the tail-suspension was performed, feed containing 0.01 mass % compound (1), compound (2), compound (3), compound (4), or compound (5) was fed for 2 weeks (compound (1) administration group, compound (2) administration group, compound (3) administration group, compound (4) administration group, and compound (5) administration group). […] The number of tests was n=8 in each group.
# Two weeks after the initiation of the experiment (the initiation of the tail-suspension and the initiation of feeding with the feed that contained the compounds), micro-CT imaging of the mouse hind limbs was performed. The muscle volume at the periphery of the tibia (triceps surae muscle) was measured using 3D volumetric analysis software. Micro-CT imaging was performed using a microfocus X-ray CT system (micro-CT: SMX-90T, manufactured by Shimadzu Corporation).
# The midpoint of the fibula in the lower limb of each mouse was determined using 3D images created from the micro-CT images, and the volume of total muscle mass at the measurement area starting from the midpoint was measured. […] The rate of increase was calculated according to the following: (compound administration group−control tail-suspension group)/(normal breeding group−control tail-suspension group)×100.
# Furthermore, the gastrocnemius muscle was collected from the mouse hind limb after the tail-suspension, and the wet mass (muscle mass) was measured. […] The rate of increase was calculated according to the following: (compound administration group−control tail-suspension group)/(normal breeding group−control tail-suspension group)×100.
# (§2) A Student's t-test was used for the significant difference test.
# [2] = Evaluation of blood kinetics of compound in mice (mixed feed); settings: for Cmax / AUC(0-t): male, mouse, po, C57BL/6 mice, plasma, LC/MS; for AUC(0-t): read-out: AUC0-24 h
# Protocol: Mixed feed that contained 0.01, 0.1, or 0.3 mass % compound (1) were fed to 7-week-old C57BL/6 mice (male, Charles River Japan Ltd., weight: 20.7-23.7 g) for 13 days.
# Blood was collected from the face by using an animal lancet at 10 a.m., 1, 5, and 9 p.m. on day 12 and 10 a.m. on day 13.
# About 75 μL of blood was collected into a heparin-coated hematocrit tube. The concentration of the compound in the plasma after centrifugation was measured using liquid chromatography-mass spectrometry (LC/MS).
# Since a mouse with a body weight of about 20 g consumes about 4 g of the feed per day (spilling of food is not assumed), the daily intake of the compound is estimated to be 0.4 mg (0.01 mass % mixed feed), 4 mg (0.1 mass % mixed feed), or 12 mg (0.3 mass % mixed feed). The body weight conversion values were 20 mg/kg (0.01 mass % mixed feed), 200 mg/kg (0.1 mass % mixed feed), and 600 mg/kg (0.3 mass % mixed feed).
# [3] = system: tail-suspended mice (disuse muscle atrophy of lower limbs); experiment: Inhibition of muscular atrophy in tail-suspended mice, Part 3 (feeding started one week after tail-suspension); settings: feed containing 0.3 mass % for 2 weeks starting one week after tail-suspension; vs control tail-suspension group
# Protocol: as §1
# One week after tail-suspension, feed that contained 0.3 mass % compound (1) was fed for 2 weeks (compound (1) administration group). […] The number of tests was n=8 in each group.
# Micro-CT imaging of the mouse hind limbs was performed before tail suspension, 1 week after suspension, 2 weeks after suspension, and 3 weeks after suspension. The muscle volume at the periphery of the tibia (triceps surae muscle) was measured using 3D volumetric analysis software. Micro-CT imaging was performed using a microfocus X-ray CT system (micro-CT: SMX-90T, manufactured by Shimadzu Corporation).
# The midpoint of the fibula in the lower limb of each mouse was determined using 3D images created from the micro-CT images, and the volume of total muscle mass at the measurement area starting from the midpoint was measured.
# Furthermore, the gastrocnemius muscle was collected from the mouse hind limb three weeks after the tail-suspension, and the wet mass (muscle mass) was measured.
# as §2
# [4] = system: tail-suspended mice (disuse muscle atrophy of lower limbs); experiment: Evaluation of inhibition of muscular atrophy in tail-suspended mice, Part 1; settings: feed containing 0.01, 0.1 or 0.3 mass % for 2 weeks during tail-suspension; vs control tail-suspension group
# Protocol: Eight-week-old C57/BL6J male mice (Japan SLC, Inc., Shizuoka, Japan) were subjected to tail-suspension to obtain mice model with disuse muscle atrophy of their lower limbs.
# The tail-suspension was performed according to the description in Skelet Muscle. 2015; 5:34. […] Tail-suspension is known to cause skeletal muscle mass loss and muscle strength loss in the hind limbs, whereby an experimental model with disuse muscle atrophy, which is one type of sarcopenia, can be produced.
# During the period of tail-suspension, feed containing 0.01, 0.1, or 0.3 mass % compound (1) was fed for 2 weeks (compound (1) administration groups). […] The number of tests was n=8 in each group.
# Two weeks after the initiation of the experiment (the initiation of the tail-suspension and the initiation of feeding of the feed that contained the compound), micro-CT (micro-computed tomography) imaging of the mouse hind limbs was performed. The muscle volume at the periphery of the tibia (triceps surae muscle) was measured using 3D volumetric analysis software. Micro-CT imaging was performed using a microfocus X-ray CT system (micro-CT: SMX-90T manufactured by Shimadzu Corporation).
# The midpoint of the fibula in the lower limb of each mouse was determined using 3D images created from the micro-CT images, and the volume of total muscle mass at the measurement area starting from the midpoint was measured. […]
# [5] = 20 mg/kg, 0.01% mixed feed for 13 days
# [6] = 200 mg/kg, 0.1% mixed feed for 13 days
# [7] = 600 mg/kg, 0.3% mixed feed for 13 days
SMILES,"muscle volume at the periphery of the tibia (triceps surae muscle), micro-CT (FIG. 6, FIG. 7) [1]","wet mass (muscle mass) of gastrocnemius muscle (FIG. 8, FIG. 9) [1]","Cmax [2, 5] [nM]","AUC(0-t) [2, 5] [µM·h]","Cmax [2, 6] [nM]","AUC(0-t) [2, 6] [µM·h]","Cmax [2, 7] [nM]","AUC(0-t) [2, 7] [µM·h]",compound concentration in blood ([2]; mixed feed in the range of 0.01 mass % to 0.3 mass %),"muscle volume change at the periphery of the tibia (triceps surae muscle), micro-CT (FIG. 11) [3]",wet mass (muscle mass) of gastrocnemius muscle three weeks after tail-suspension (FIG. 12) [3],"muscle volume at the periphery of the tibia (triceps surae muscle), micro-CT (FIG. 2) [4]","wet mass (muscle mass) of gastrocnemius, soleus, tibialis anterior and extensor digitorum longus muscles (FIG. 3) [4]"
"O=C(Nc1ccc(N2CCC(CCn3cncn3)C2)cc1)N1CCC(=Cc2ccccn2)CC1 (stereo not shown) [compound (4), N-(4-(3-(2-(1H-1,2,4-triazol-1-yl)ethyl)pyrrolidin-1-yl)phenyl)-4-(pyridin-2-ylmethylene)piperidine-1-carboxamide]",significant suppression of muscle mass loss,significant suppression of the decrease in the muscle amount,,,,,,,,,,,
"c1ccc(C(OC2CCN(CCCc3nnn[nH]3)CC2)c2ccccc2)cc1 [compound (2), 4-(diphenylmethoxy)-1-[3-(2H-tetrazol-5-yl)propyl]piperidine]",did not show significant suppression of muscle mass loss although a tendency toward suppression was observed,did not show a significant difference although a tendency toward suppression of the decrease in the muscle amount was observed,,,,,,,,,,,
"Cn1cccc1C(=O)N1CCN(C(=O)NC2CCN(c3ccc(CCn4ccnn4)cc3)CC2)CC1 [compound (5), 4-((1-methylpyrrol-2-yl)-carbonyl)-N-(1-(4-(2-(1H-1,2,3-triazol-1-yl)-ethyl)-phenyl)-piperidin-4-yl)-1-piperazine carboxamide]",significant suppression of muscle mass loss,significant suppression of the decrease in the muscle amount,,,,,,,,,,,
"Cn1cccc1C(=O)N1CCN(C(=O)Nc2ccc(N3CCC(C(=O)N4CCOCC4)CC3)cc2)CC1 [compound (1), 4-{(1-methyl-1H-pyrrol-2-yl)carbonyl}-N-[4-{4-(4-morpholinylcarbonyl)-1-piperidinyl}phenyl]-1-piperazine carboxamide]",significant suppression of muscle mass loss,significant suppression of the decrease in the muscle amount,230,4.29,2210,38.3,6410,104,dose-dependent increase in the compound concentration in blood,significantly higher muscle amount at week 2 and week 3,significant therapeutic effect on the muscle amount,significant suppression of muscle mass loss,a tendency to suppress a decrease in the muscle amount in all of the hind limb muscles
